# The source made the active and inactive calls. No cut-off for these calls is given here.
# Legend:
# KB = experiment: Cytotoxicity against human KB cells; format: functional
# P388 = experiment: Cytotoxicity against mouse P388 cells; format: functional
# [1] = read-out: ED50 (the source's name)
SMILES,Activity (KB),Activity (P388),EC50 (KB; [1]),EC50 (P388; [1])
COc1cc2c3c(cc4ccccc4c3c1O)NC2=O,inactive,inactive,,
COc1cccc2c1cc1c3c(cc4c(c32)OCO4)C(=O)N1,inactive,inactive,,
COc1c(O)c(OC)c2c3c(cc4ccccc42)NC(=O)c13,inactive,inactive,,
COc1c(O)cc2c3c(cc4ccccc4c13)NC2=O [ARISTOLACTAM AII],,,2.1 µg/mL,3.2 µg/mL

# Source: ChEMBL document CHEMBL1150727, “New cytotoxic aristolactams from Pararistolochia flos-avis” (1987)
